This is an account of results in patent publication US8501166B2, “Pyrimidinyl indole compounds” (Hutchison Medipharma Limited, priority 2010, dated 2013).

One assay relates to Skov3-luc cells. As to the kind of experiment: Cell viability test, combination study, Skov3-luc. The assay is classed as cell-based. To be noted: Homo sapiens, 72 h, read-out: Ave. Inhibition rate. On the procedure:
To evaluate biological activity of a compound in vitro, the cell viability test is applied, in which, IKKβ receptor plays an important role in cell survival and proliferation. Once the IKKβ pathway is blocked by inhibitors, a cell can go through apoptosis or death. The cell viability test provides information on cell survival after treatment with IKK inhibitors.
BxPC-3 cells (ATCC #CRL-1687; human pancreatic cancer cell line) are grown in Roswell Park Memorial Institute (RPMI) 1640 media (Gibco #A10491-01) supplemented with 10% fetal bovine serum (FBS) (Gibco #10099-141). Skov3-luc cells (ATCC, human ovarian carcinoma cell line) are grown in McCoy's 5a medium (Gibco#16600) supplemented with 10% FBS (Gibco#10099-141). For compound testing, BxPc-3 and Skov3-Luc cells are seeded at 2000 and 5000 cells/well respectively in 100 μL of corresponding media specified above for each cell line in 96-well plates 20 h prior to treatment. Cells are treated with a test compound at eight different concentrations in the presence of 0.5% DMSO for 72 h. Cell death in each well is determined by the addition of 20 μL of the One Solution Reagent (CELLTITER 96® AQueous One Solution Cell Proliferation Assay, Promega #G3580). After 2-4 h of incubation at 37° C., optical densities at 492 nm are measured with a microplate reader Inhibition of cell viability is determined by comparison to the control cells treated in the absence of a test compound.
For the combination study of the compound with other antitumor agents, BxPc-3 and Skov3-Luc cells are seeded at 2000 and 5000 cells/well respectively in 100 μL corresponding media specified above for each cell line in 96-well plates 20 h prior to the treatment. […] Cell death in each well is determined by the addition of 20 μL of the One Solution Reagent (CELLTITER 96® AQueous One Solution Cell Proliferation Assay, Promega #G3580). After 2-4 h of incubation at 37° C., optical densities at 492 nm are measured with a microplate reader Inhibition of cell viability is determined by comparison to the control cells treated in the absence of a test compound. […]

Assay [1] relates to SKOV-3x-FF-luci human ovarian cancer xenograft. As to the kind of experiment: Anti-tumor effects in SKOV-3x-FF-luci xenograft (21 days). The assay is classed as in vivo, Balb/c nu/nu mice. To be noted: 60 mg/kg, tid, q6 h, oral. On the procedure:
Anti-tumor Effects in Human Ovarian Cancer SKOV-3x-FF-luci Xenograft SKOV-3x-FF-luci human ovarian cancer line cell line (ATCC) is cultured in McCoy's 5a medium containing 10% fetal calf serum (FCS). Female Balb/c nu/nu mice (6-8 weeks old) are peritoneally injected with 0.2 mL of cell suspension containing 2×10^6 cells. Mice are divided into five groups six days after cell implantation. The test compound at doses of 60, 90 and 150 mg/kg is orally administered to animals for a consecutive 21 days with a twice a day (bid) or three times a day (tid) regimen. Mice in control groups are administered the vehicle (10% Acacia at pH 2.1, bid). At the end of the treatment, all mice are euthanized with CO2 and tumors in the peritoneal cavity, diaphragmatic muscle, mesenterium, liver, spleen, and ovaries are dissected and harvested, and put together for the measurement of their combined weight. Results of tumor weight and inhibition rate (IR) are evaluated. The inhibition rate is calculated with the formula: IR %=(tumor weight in control−tumor weight in drug treated)/tumor weight in control×100%.

The test system is the same in assay [2]. The assay can be described thus: Anti-tumor effects in SKOV-3x-FF-luci xenograft (alternate protocol, 23 days). The format is in vivo, Balb/c nu/nu mice. The protocol: Alternately, the test compound is evaluated for its anti-tumor effects on tumor growth of human ovarian cancer SKOV-3x-FF-luci in nude mice. SKOV-3x-FF-luci cell line (ATCC) is cultured in McCoy's 5a medium containing 10% fetal calf serum. Female Balb/c nu/nu mice (6-7 weeks old) are injected peritoneally with 0.2 mL of cell suspension containing 2×10^6 cells. Mice are randomized and divided into four groups six days after cell implantation. The test compound at doses of 30 and 100 mg/kg is orally administered to animals twice a day for 23 consecutive days. Mice in the control group are administered the vehicle (10% Acacia), twice a day. Mice in the positive control group are injected with Cisplatin (4 mg/kg) via the tail vein once a week. At the end of the treatment, all mice are euthanized with CO2 and tumor nodules in the peritoneal cavity, diaphragmatic muscle, mesenterium, liver, spleen, and ovaries are dissected, harvested, and combined for the measurement of weight. Inhibition rate: IR %=(tumor weight in control−tumor weight in drug treated)/tumor weight in control×100%).

Assay [3] has as its system OVA-induced airway inflammation. The assay can be described thus: OVA-induced pulmonary inflammation in Brown-Norway rats. Particulars: Rattus norvegicus, 480 h; BN rats, 0.3 to 30 mg/kg oral bid, day 20 and 21; read-out: ED50, increase of total cells and eosinophiles in BAL fluids. The format is in vivo. On the procedure:
To evaluate the effects of IKKβ inhibitors on antigen-driven airway inflammation in vivo, the compound is also tested in OVA-induced pulmonary inflammation model in rats essentially as described in a method reported in the literature (Yamamoto N, Takeshita K, Shichijo M, Kokubo T, Sato M, Nakashima K, Ishimori M, Nagai H, Li Y F, Yura T, Bacon K B. J Pharm. Exp Ther. 2003; 306(3):1174-81). Briefly, male BN rats weighing from 240 to 260 g are sensitized by intraperitoneal injection of 1 mL of saline containing 1 mg of OVA and 13 mg of aluminum hydroxide on days 1, 2 and 3. Rats serving as normal control received 1 mL of saline instead of OVA. The test compound at doses of 0.3, 1, 3 and 30 mg/kg (bid) is orally administered to rats on day 20 and 21. On day 21 rats are challenged with 1% OVA for 15 minutes with Buxco Mass Dosing System. On day 22, rats are anesthetized with 1% Pentobarbital Sodium. The thoracic and abdominal cavities are opened. Plasma is collected from centrifuged specimens. The trachea is dissected and transected. Through the insertion of an 18-gauge catheter into the trachea, the lungs are lavaged with a total of 15 mL of sterile PBS, and then placed into a specimen container. Cell-free BAL supernatants are obtained by centrifugation of BAL fluids. All serum and BAL supernatants are stored at −80° C. until use. […]

In the next assay the test system is PLP-139-151 induced EAE. The assay can be described thus: Mouse experimental autoimmune encephalomyelitis (EAE) model. The format is in vivo, SJL/J mice.

Where a name gives a salt, the structure may show the parent alone. Read-outs that look alike come from different tables or passages of the source.

One may read the inhibition as the change of the read-out against control, counted positive when it falls. As to `O=C(NC1CC1)c1cccc2[nH]c(-c3nc(N[C@@H]4CCC[C@@H]4O)ncc3Cl)cc12` [Example 1, 2-{5-Chloro-2-[(1R,2S)-2-hydroxycyclopentylamino]pyrimidin-4-yl}-N-cyclopropyl-1H-indole-4-carboxamide hydrochloride], the inhibition at 12.5 µM amounted to 21.8% in the assay on Skov3-luc cells (Example 1 12.5 μM alone) and 82.3% with Skov3-luc cells (Vincristine 0.25 μM + Example 1 12.5 μM). Also, in assay [1], the “Tumor Weight (g) (Mean ± S.D.)” value is given as 0.509 ± 0.193 g. Moreover, the “IR (tumor inhibition rate)” value in assay [1] (hydrochloride) worked out at 76.31%.
One may read the ED50 as the dose at which the effect has come halfway, by size or by number of responders. As to `Cl.O=C(NC1CC1)c1cccc2[nH]c(-c3nc(N[C@@H]4CCC[C@H]4O)ncc3Cl)cc12` [Example 2, 2-{5-Chloro-2-[(1R,2R)-2-hydroxycyclopentylamino]pyrimidin-4-yl}-N-cyclopropyl-1H-indole-4-carboxamide hydrochloride], the entries for the “tumor inhibition rate (IR)” value in assay [2] (30 mg/kg oral twice a day) and in assay [2] (100 mg/kg oral twice a day) were 59.3% and 93.9%, respectively. In addition, the ED50 in assay [3] was 0.49 mg/kg; with PLP-139-151 induced EAE (Mus musculus, 3, 10, and 30 mg/kg oral twice daily, read-out: ED50, EAE clinical score), 3.7 mg/kg. Besides, in the assay on PLP-139-151 induced EAE (10 and 30 mg/kg), the body weight loss result is “improves”.
